Results: ChEMBL document CHEMBL3045094, “A cytotoxic agent from Strychnos nux-vomica and biological evaluation of its modified analogues” (Med Chem Res, 2012)
In brackets after ≈: the same amount, converted by molar mass.

Assays:
Bacopa monnieri [1] = experiment: Toxicity against Bacopa monnieri assessed as change in leaf colour at 50 ug/ml after 15 days by Bacopa sensor test; assay type: organism-based; conditions: in vivo, 360 h
MCF7 [2] = experiment: Cytotoxic activity against Homo sapiens (human) MCF7 cells incubated for 4 hr followed by compound wash-out measured after doubling time by MTT assay; assay type: functional, cell-based
Caco-2 [3] = experiment: Cytotoxic activity against Homo sapiens (human) Caco2 cells incubated for 4 hr followed by compound wash-out measured after doubling time by MTT assay; assay type: functional, cell-based
WRL68 [4] = experiment: Cytotoxic activity against Homo sapiens (human) WRL68 cells by clonogenic assay; assay type: functional, cell-based
Bacopa monnieri [5] = experiment: Toxicity against Bacopa monnieri assessed as shoot elongation at 50 ug/ml after 15 days by Bacopa sensor test (reference value: 0.8 cm); assay type: organism-based; conditions: in vivo, 360 h
COLO 320 [6] = experiment: Cytotoxic activity against Homo sapiens (human) COLO320 cells by clonogenic assay; assay type: functional, cell-based
WRL68 [7] = experiment: Cytotoxic activity against Homo sapiens (human) WRL68 cells incubated for 4 hr followed by compound wash-out measured after doubling time by MTT assay; assay type: functional, cell-based
Bacopa monnieri [8] = experiment: Toxicity against Bacopa monnieri assessed as number of shoots at 50 ug/ml after 15 days by Bacopa sensor test (reference value: 2); assay type: organism-based; conditions: in vivo, 360 h
PA-1 [9] = experiment: Cytotoxic activity against Homo sapiens (human) PA1 cells incubated for 4 hr followed by compound wash-out measured after doubling time by MTT assay; assay type: functional, cell-based
PA-1 [10] = experiment: Cytotoxic activity against Homo sapiens (human) PA1 cells by clonogenic assay; assay type: functional, cell-based
Bacopa monnieri [11] = experiment: Toxicity against Bacopa monnieri assessed as number of roots at 50 ug/ml after 15 days by Bacopa sensor test (reference value: 2); assay type: organism-based; conditions: in vivo, 360 h
MCF7 [12] = experiment: Cytotoxic activity against Homo sapiens (human) MCF7 cells by clonogenic assay; assay type: functional, cell-based
Caco-2 [13] = experiment: Cytotoxic activity against Homo sapiens (human) Caco2 cells by clonogenic assay; assay type: functional, cell-based
COLO 320 [14] = experiment: Cytotoxic activity against Homo sapiens (human) COLO320 cells incubated for 4 hr followed by compound wash-out measured after doubling time by MTT assay; assay type: functional, cell-based
Bacopa monnieri [15] = experiment: Toxicity against Bacopa monnieri assessed as number of leaves at 50 ug/ml after 15 days by Bacopa sensor test (reference value: 6); assay type: organism-based; conditions: in vivo, 360 h
[16] = Homo sapiens, MCF7, 4 h, read-out: IC50
[17] = Homo sapiens, Caco-2, 4 h, read-out: IC50
[18] = Homo sapiens, WRL68, 4 h, read-out: IC50
[19] = Homo sapiens, PA-1, 4 h, read-out: IC50
[20] = Homo sapiens, COLO 320, 4 h, read-out: IC50

Row | SMILES | Activity (Bacopa monnieri [1]) | IC50 (MCF7 [2]; [16]) [µg/mL] | IC50 (Caco-2 [3]; [17]) [µg/mL] | IC50 (WRL68 [4]) [µg/mL] | Activity (Bacopa monnieri [5]) [cm] | IC50 (COLO 320 [6]) [µg/mL] | IC50 (WRL68 [7]; [18]) [µg/mL] | Activity (Bacopa monnieri [8]) | IC50 (PA-1 [9]; [19]) [µg/mL] | IC50 (PA-1 [10]) [µg/mL] | Activity (Bacopa monnieri [11]) | IC50 (MCF7 [12]) [µg/mL] | IC50 (Caco-2 [13]) [µg/mL] | IC50 (COLO 320 [14]; [20]) [µg/mL] | Activity (Bacopa monnieri [15]) | IC50 (MCF7 [2]; mcf7) | IC50 (Caco-2 [3]; caco-2) | IC50 (WRL68 [7]; wrl68) | IC50 (PA-1 [9]; pa-1) | IC50 (COLO 320 [14]; colo 320)
1 | COC(=O)C1=CO[C@@H](O[C@@H]2O[C@H](CO)[C@@H](O)[C@H](O)[C@H]2O)[C@@H]2[C@@H](C)[C@@H](O)C[C@H]12 [LOGANIN] | Non-toxic | 4.85 (≈ 12.4 µM) | 1.28 (≈ 3.28 µM) | 3.2 (≈ 8.2 µM) | 0.4 | 2.2 (≈ 5.64 µM) | 1.86 (≈ 4.76 µM) | 2 | 1.45 (≈ 3.71 µM) | 4.85 (≈ 12.4 µM) | 2 | 6.45 (≈ 16.5 µM) | 3.45 (≈ 8.84 µM) | 1 (≈ 2.56 µM) | 6 | – | – | – | – | –
2 | CCC(=O)OC[C@H]1O[C@@H](O[C@@H]2OC=C(C(=O)OC)[C@H]3C[C@H](OC(C)=O)[C@H](C)[C@@H]23)[C@H](OC(C)=O)[C@@H](OC(C)=O)[C@@H]1OC(C)=O | Non-toxic | 1.88 (≈ 3.06 µM) | 2.85 (≈ 4.64 µM) | 8.4 (≈ 13.7 µM) | 0.65 | 4.86 (≈ 7.91 µM) | 2.65 (≈ 4.31 µM) | 2 | 1.24 (≈ 2.02 µM) | 2.85 (≈ 4.64 µM) | 2 | 4.26 (≈ 6.93 µM) | 4.88 (≈ 7.94 µM) | 0.85 (≈ 1.38 µM) | 4 | – | – | – | – | –
3 | CCCCCCCCCCCCCCCC(=O)OC[C@H]1O[C@@H](O[C@@H]2OC=C(C(=O)OC)[C@H]3C[C@H](OC(C)=O)[C@H](C)[C@@H]23)[C@H](OC(C)=O)[C@@H](OC(C)=O)[C@@H]1OC(C)=O | – | – | – | – | – | – | – | – | – | – | – | – | – | – | – | Not Active | Not Active | Not Active | Not Active | Not Active
4 | COc1cccc2c1C(=O)c1c(O)c3c(c(O)c1C2=O)C[C@@](O)(C(=O)CO)C[C@@H]3O[C@H]1C[C@H](N)[C@H](O)[C@H](C)O1 [DOXORUBICIN] | Toxic | – | – | – | 0.2 | – | – | 1 | – | – | 0 | – | – | – | 2 | – | – | – | – | –
5 | COC(=O)C1=CO[C@@H](O[C@@H]2O[C@H](COC(=O)c3cccc([N+](=O)[O-])c3)[C@@H](OC(C)=O)[C@H](OC(C)=O)[C@H]2OC(C)=O)[C@@H]2[C@@H](C)[C@@H](OC(C)=O)C[C@H]12 | Non-toxic | 1.25 (≈ 1.77 µM) | 1 (≈ 1.41 µM) | 6.5 (≈ 9.19 µM) | 0.8 | 8.2 (≈ 11.6 µM) | 3.2 (≈ 4.52 µM) | 2 | 0.85 (≈ 1.2 µM) | 2.65 (≈ 3.74 µM) | 2 | 3.42 (≈ 4.83 µM) | 5.42 (≈ 7.66 µM) | 0.44 (≈ 0.622 µM) | 6 | – | – | – | – | –
6 | CC[C@]1(O)C[C@@H]2CN(CCc3c([nH]c4ccccc34)[C@@](C(=O)OC)(c3cc4c(cc3OC)N(C)[C@H]3[C@@](O)(C(=O)OC)[C@H](OC(C)=O)[C@]5(CC)C=CCN6CC[C@]43[C@@H]65)C2)C1 [VINBLASTINE] | Non-toxic | – | 0.46 (≈ 0.567 µM) | – | 0.6 | 1.6 (≈ 1.97 µM) | – | 2 | 0.03 (≈ 0.037 µM) | 0.15 (≈ 0.185 µM) | 2 | – | 2.8 (≈ 3.45 µM) | 0.52 (≈ 0.641 µM) | 6 | – | – | – | – | –
